# Measured values published in ChEMBL document CHEMBL3885881, “DrugMatrix”.
# Species on record: Rattus norvegicus
# Assay: DrugMatrix - Regimen: Daily Repeat
# Type: toxicity, organism-based, Sprague-Dawley
# Parameters: regimen Daily Repeat, gender Male, age 6-8 weeks
# Settings: in vivo, po, route oral GAVAGE, vehicle 100 % WATER; for ABSOLUTE BASOPHIL / ABSOLUTE EOSINOPHIL / ABSOLUTE LYMPHOCYTE / ABSOLUTE MONOCYTE / ABSOLUTE SEGMENTED NEUTROPHIL / BASOPHIL / EOSINOPHIL / ERYTHROCYTE COUNT / HEMATOCRIT / HEMOGLOBIN / LEUKOCYTE COUNT / LYMPHOCYTE / MEAN CORPUSCULAR HEMOGLOBIN / MEAN CORPUSCULAR HEMOGLOBIN CONCENTRATION / MEAN CORPUSCULAR VOLUME / MONOCYTE / NEUTROPHIL / NUCLEATED RED BLOOD CELLS / PLATELET COUNT: tissue Blood; for ALANINE AMINOTRANSFERASE / ALBUMIN / ALKALINE PHOSPHATASE / ASPARTATE AMINOTRANSFERASE / BLOOD UREA NITROGEN / CARBON DIOXIDE / CHLORIDE / CHOLESTEROL / CREATINE PHOSPHOKINASE / CREATININE / GLUCOSE / LACTATE DEHYDROGENASE / LIPASE / PHOSPHORUS / POTASSIUM / SODIUM / TOTAL BILIRUBIN / TOTAL PROTEIN / URIC ACID: tissue Plasma
# [1] = 30 mg/kg, 72 h, dose level Low, time 3 day
# [2] = 30 mg/kg, 120 h, dose level Low, time 5 day
# [3] = 1000 mg/kg, 72 h, dose level High, time 3 day
# [4] = 1000 mg/kg, 120 h, dose level High, time 5 day
smiles,measurement,setting,value
CCCCc1nc(Cl)c(CO)n1Cc1ccc(-c2ccccc2-c2nn[nH]n2)cc1 [LOSARTAN],ABSOLUTE BASOPHIL,[1],0 CELLS/uL
same,ABSOLUTE EOSINOPHIL,[1],0 CELLS/uL
same,ABSOLUTE LYMPHOCYTE,[1],14016.67 CELLS/uL
same,ABSOLUTE MONOCYTE,[1],389.33 CELLS/uL
same,ABSOLUTE SEGMENTED NEUTROPHIL,[1],894 CELLS/uL
same,BASOPHIL,[1],0%
same,EOSINOPHIL,[1],0%
same,ERYTHROCYTE COUNT,[1],5.45 x10E6/uL
same,HEMATOCRIT,[1],35.03%
same,HEMOGLOBIN,[1],13.17 G/DL
same,LEUKOCYTE COUNT,[1],15.3 x10E3/uL
same,LYMPHOCYTE,[1],91.33%
same,MEAN CORPUSCULAR HEMOGLOBIN,[1],24.17 pg
same,MEAN CORPUSCULAR HEMOGLOBIN CONCENTRATION,[1],37.6 G/DL
same,MEAN CORPUSCULAR VOLUME,[1],64.2 fL
same,MONOCYTE,[1],2.67%
same,NEUTROPHIL,[1],6%
same,NUCLEATED RED BLOOD CELLS,[1],0 /100WBC
same,PLATELET COUNT,[1],1281.67 x10E3/uL
same,ALANINE AMINOTRANSFERASE,[1],42 u/L
same,ALBUMIN,[1],4.4 G/DL
same,ALKALINE PHOSPHATASE,[1],318.67 u/L
same,ASPARTATE AMINOTRANSFERASE,[1],77.33 u/L
same,BLOOD UREA NITROGEN,[1],20 mg/dL
same,CARBON DIOXIDE,[1],25 mmol/L
same,CHLORIDE,[1],103 MEQ/L
same,CHOLESTEROL,[1],78 mg/dL
same,CREATINE PHOSPHOKINASE,[1],190.67 u/L
same,CREATININE,[1],0.23 mg/dL
same,GLUCOSE,[1],178 mg/dL
same,LACTATE DEHYDROGENASE,[1],89.33 u/L
same,LIPASE,[1],9.33 u/L
same,PHOSPHORUS,[1],13.6 mg/dL
same,POTASSIUM,[1],7.08 MEQ/L
same,SODIUM,[1],145.07 MEQ/L
same,TOTAL BILIRUBIN,[1],0.17 mg/dL
same,TOTAL PROTEIN,[1],6.1 G/DL
same,URIC ACID,[1],2.83 mg/dL
same,ABSOLUTE BASOPHIL,[2],0 CELLS/uL
same,ABSOLUTE EOSINOPHIL,[2],152.67 CELLS/uL
same,ABSOLUTE LYMPHOCYTE,[2],13450.67 CELLS/uL
same,ABSOLUTE MONOCYTE,[2],299.67 CELLS/uL
same,ABSOLUTE SEGMENTED NEUTROPHIL,[2],963.67 CELLS/uL
same,BASOPHIL,[2],0%
same,EOSINOPHIL,[2],1.33%
same,ERYTHROCYTE COUNT,[2],5.55 x10E6/uL
same,HEMATOCRIT,[2],35.3%
same,HEMOGLOBIN,[2],13.53 G/DL
same,LEUKOCYTE COUNT,[2],14.87 x10E3/uL
same,LYMPHOCYTE,[2],90%
same,MEAN CORPUSCULAR HEMOGLOBIN,[2],24.37 pg
same,MEAN CORPUSCULAR HEMOGLOBIN CONCENTRATION,[2],38.33 G/DL
same,MEAN CORPUSCULAR VOLUME,[2],63.6 fL
same,MONOCYTE,[2],2%
same,NEUTROPHIL,[2],6.67%
same,NUCLEATED RED BLOOD CELLS,[2],0.33 /100WBC
same,PLATELET COUNT,[2],1227.33 x10E3/uL
same,ALANINE AMINOTRANSFERASE,[2],55 u/L
same,ALBUMIN,[2],4.43 G/DL
same,ALKALINE PHOSPHATASE,[2],365.33 u/L
same,ASPARTATE AMINOTRANSFERASE,[2],83.67 u/L
same,BLOOD UREA NITROGEN,[2],26 mg/dL
same,CARBON DIOXIDE,[2],23.67 mmol/L
same,CHLORIDE,[2],109 MEQ/L
same,CHOLESTEROL,[2],82 mg/dL
same,CREATINE PHOSPHOKINASE,[2],302.33 u/L
same,CREATININE,[2],0.19 mg/dL
same,GLUCOSE,[2],156.67 mg/dL
same,LACTATE DEHYDROGENASE,[2],189 u/L
same,LIPASE,[2],9.5 u/L
same,PHOSPHORUS,[2],12.1 mg/dL
same,POTASSIUM,[2],6.02 MEQ/L
same,SODIUM,[2],144.45 MEQ/L
same,TOTAL BILIRUBIN,[2],0.0667 mg/dL
same,TOTAL PROTEIN,[2],6.2 G/DL
same,URIC ACID,[2],1.5 mg/dL
same,ABSOLUTE BASOPHIL,[3],0 CELLS/uL
same,ABSOLUTE EOSINOPHIL,[3],0 CELLS/uL
same,ABSOLUTE LYMPHOCYTE,[3],16308 CELLS/uL
same,ABSOLUTE MONOCYTE,[3],476 CELLS/uL
same,ABSOLUTE SEGMENTED NEUTROPHIL,[3],949.33 CELLS/uL
same,BASOPHIL,[3],0%
same,EOSINOPHIL,[3],0%
same,ERYTHROCYTE COUNT,[3],5.24 x10E6/uL
same,HEMATOCRIT,[3],33.6%
same,HEMOGLOBIN,[3],12.73 G/DL
same,LEUKOCYTE COUNT,[3],17.73 x10E3/uL
same,LYMPHOCYTE,[3],92.33%
same,MEAN CORPUSCULAR HEMOGLOBIN,[3],24.3 pg
same,MEAN CORPUSCULAR HEMOGLOBIN CONCENTRATION,[3],37.9 G/DL
same,MEAN CORPUSCULAR VOLUME,[3],64.13 fL
same,MONOCYTE,[3],2.67%
same,NEUTROPHIL,[3],5%
same,NUCLEATED RED BLOOD CELLS,[3],0 /100WBC
same,PLATELET COUNT,[3],1384.67 x10E3/uL
same,ALANINE AMINOTRANSFERASE,[3],41.67 u/L
same,ALBUMIN,[3],4.4 G/DL
same,ALKALINE PHOSPHATASE,[3],365.67 u/L
same,ASPARTATE AMINOTRANSFERASE,[3],77.33 u/L
same,BLOOD UREA NITROGEN,[3],39.33 mg/dL
same,CARBON DIOXIDE,[3],21.67 mmol/L
same,CHLORIDE,[3],106.33 MEQ/L
same,CHOLESTEROL,[3],96 mg/dL
same,CREATINE PHOSPHOKINASE,[3],290.67 u/L
same,CREATININE,[3],0.26 mg/dL
same,GLUCOSE,[3],165.33 mg/dL
same,LACTATE DEHYDROGENASE,[3],296 u/L
same,LIPASE,[3],10 u/L
same,PHOSPHORUS,[3],12.6 mg/dL
same,POTASSIUM,[3],6.89 MEQ/L
same,SODIUM,[3],144.3 MEQ/L
same,TOTAL BILIRUBIN,[3],0.2 mg/dL
same,TOTAL PROTEIN,[3],5.93 G/DL
same,URIC ACID,[3],1.73 mg/dL
same,ABSOLUTE BASOPHIL,[4],0 CELLS/uL
same,ABSOLUTE EOSINOPHIL,[4],186 CELLS/uL
same,ABSOLUTE LYMPHOCYTE,[4],17950.67 CELLS/uL
same,ABSOLUTE MONOCYTE,[4],194 CELLS/uL
same,ABSOLUTE SEGMENTED NEUTROPHIL,[4],1069.33 CELLS/uL
same,BASOPHIL,[4],0%
same,EOSINOPHIL,[4],1%
same,ERYTHROCYTE COUNT,[4],5.34 x10E6/uL
same,HEMATOCRIT,[4],32.67%
same,HEMOGLOBIN,[4],12.67 G/DL
same,LEUKOCYTE COUNT,[4],19.4 x10E3/uL
same,LYMPHOCYTE,[4],92.67%
same,MEAN CORPUSCULAR HEMOGLOBIN,[4],23.73 pg
same,MEAN CORPUSCULAR HEMOGLOBIN CONCENTRATION,[4],38.77 G/DL
same,MEAN CORPUSCULAR VOLUME,[4],61.27 fL
same,MONOCYTE,[4],1%
same,NEUTROPHIL,[4],5.33%
same,NUCLEATED RED BLOOD CELLS,[4],0 /100WBC
same,PLATELET COUNT,[4],1450.33 x10E3/uL
same,ALANINE AMINOTRANSFERASE,[4],48.67 u/L
same,ALBUMIN,[4],4.4 G/DL
same,ALKALINE PHOSPHATASE,[4],418.33 u/L
same,ASPARTATE AMINOTRANSFERASE,[4],72 u/L
same,BLOOD UREA NITROGEN,[4],59.67 mg/dL
same,CARBON DIOXIDE,[4],24.33 mmol/L
same,CHLORIDE,[4],110.67 MEQ/L
same,CHOLESTEROL,[4],80.67 mg/dL
same,CREATINE PHOSPHOKINASE,[4],480.33 u/L
same,CREATININE,[4],0.37 mg/dL
same,GLUCOSE,[4],175.33 mg/dL
same,LACTATE DEHYDROGENASE,[4],59.33 u/L
same,LIPASE,[4],9 u/L
same,PHOSPHORUS,[4],11.37 mg/dL
same,POTASSIUM,[4],7.02 MEQ/L
same,SODIUM,[4],146.03 MEQ/L
same,TOTAL BILIRUBIN,[4],0.13 mg/dL
same,TOTAL PROTEIN,[4],5.9 G/DL
same,URIC ACID,[4],1.83 mg/dL
